Assay: xn = mol fraction of the nth substance listed
Settings: 101 kPa, Liquid; for speed of sound: Sing-around technique in a fixed-path interferometer; for mass density: Vibrating tube method

CC(O)CO (stereo not given) [1,2-propanediol] + CCCC[n+]1ccn(C)c1.O=S(=O)([N-]S(=O)(=O)C(F)(F)F)C(F)(F)F
Settings	mass density [kg/m3]	speed of sound [m/s]
293.15 K, x2 = 0.0606	1117.8	1446.5
293.15 K, x2 = 0.1118	1168.99	1406.4
293.15 K, x2 = 0.2003	1234.54	1358.1
293.15 K, x2 = 0.3056	1289.66	1319.6
293.15 K, x2 = 0.408	1328.41	1294.8
293.15 K, x2 = 0.4987	1355.11	1279.5
293.15 K, x2 = 0.602	1379.69	1265.9
293.15 K, x2 = 0.7047	1399.49	1256.2
293.15 K, x2 = 0.7945	1413.97	1249.2
293.15 K, x2 = 0.8971	1428	1243.5
298.15 K, x2 = 0.0606	1113.84	1435.8
298.15 K, x2 = 0.1118	1164.21	1395.8
298.15 K, x2 = 0.2003	1230.02	1345.7
298.15 K, x2 = 0.3056	1284.95	1307.6
298.15 K, x2 = 0.408	1323.62	1283.1
298.15 K, x2 = 0.4987	1350.28	1268
298.15 K, x2 = 0.602	1374.74	1254.5
298.15 K, x2 = 0.7047	1394.49	1244.9
298.15 K, x2 = 0.7945	1409	1238
298.15 K, x2 = 0.8971	1423.19	1232.2
303.15 K, x2 = 0.0606	1109.82	1422.8
303.15 K, x2 = 0.1118	1161.05	1382.1
303.15 K, x2 = 0.2003	1225.5	1333.5
303.15 K, x2 = 0.3056	1280.27	1295.7
303.15 K, x2 = 0.408	1318.85	1271.4
303.15 K, x2 = 0.4987	1345.27	1256.6
303.15 K, x2 = 0.602	1369.61	1243.2
303.15 K, x2 = 0.7047	1389.48	1233.8
303.15 K, x2 = 0.7945	1404.07	1226.9
303.15 K, x2 = 0.8971	1418.39	1221.1
308.15 K, x2 = 0.0606	1105.77	1408.7
308.15 K, x2 = 0.1118	1156.91	1367.8
308.15 K, x2 = 0.2003	1220.98	1321.3
308.15 K, x2 = 0.3056	1275.59	1283.8
308.15 K, x2 = 0.408	1314.09	1259.9
308.15 K, x2 = 0.4987	1340.46	1245.3
308.15 K, x2 = 0.602	1364.78	1232
308.15 K, x2 = 0.7047	1384.7	1222.7
308.15 K, x2 = 0.7945	1399.37	1215.9
308.15 K, x2 = 0.8971	1413.61	1210.2
313.15 K, x2 = 0.0606	1101.68	1396.5
313.15 K, x2 = 0.1118	1152.58	1356.3
313.15 K, x2 = 0.2003	1216.47	1309.3
313.15 K, x2 = 0.3056	1270.92	1272.2
313.15 K, x2 = 0.408	1309.33	1248.6
313.15 K, x2 = 0.4987	1335.67	1234.1
313.15 K, x2 = 0.602	1359.98	1220.9
313.15 K, x2 = 0.7047	1379.79	1211.8
313.15 K, x2 = 0.7945	1394.5	1205
313.15 K, x2 = 0.8971	1408.84	1199.3
318.15 K, x2 = 0.0606	1097.57	1383.2
318.15 K, x2 = 0.1118	1147.96	1343.7
318.15 K, x2 = 0.2003	1211.95	1297.3
318.15 K, x2 = 0.3056	1266.24	1260.6
318.15 K, x2 = 0.408	1304.59	1237.3
318.15 K, x2 = 0.4987	1330.88	1223.1
318.15 K, x2 = 0.602	1355.18	1210.1
318.15 K, x2 = 0.7047	1374.95	1201
318.15 K, x2 = 0.7945	1389.43	1194.3
318.15 K, x2 = 0.8971	1404.09	1188.6

— the NIST ThermoML archive (doi:10.1016/j.fluid.2015.12.007)
